Among the data in US10112941B2, “Tricyclic compounds as anticancer agents” (BRISTOL-MYERS SQUIBB COMPANY, priority 2013, dated 2018) are IC50 values, retold here.

pIC50: −log10 of the molar value. A value given as a limit tells only on which side of the number the result lay.

The target of this experiment is BRD4 (Homo sapiens, UniProt O60885). Description: Time Resolved Fluorescence Resonance Energy Transfer (TR-FRET) binding assay, BRD4. The following applies: one of the FRET assays described; read-out: FRET BRD4 IC50. In general terms: In TR-FRET formats the signal depends on donor and acceptor labels being close together.

Usually pIC50 stands for the IC50 on a negative log10 scale, so that one unit is a factor of ten. For the molecule `COc1ccc(C(C2CCOCC2)n2c3cc(C(C)(C)O)ccc3c3ncc(-c4c(C)nnn4C)cc32)c(F)c1F` (single isomer, unassigned) [Example 122, 2-{5-[(2,3-Difluoro-4-methoxyphenyl)(oxan-4-yl)methyl]-3-(dimethyl-1H-1,2,3-triazol-5-yl)-5H-pyrido[3,2-b]indol-7-yl}propan-2-ol], the pIC50 is over 8.30.

For the molecule `COc1cc(F)c(C(C2CCOCC2)n2c3cc(C(C)(C)O)ccc3c3ncc(-c4c(C)nnn4C)cc32)cc1F` (single isomer, unassigned) [Example 123, 2-{5-[(2,5-Difluoro-4-methoxyphenyl)(oxan-4-yl)methyl]-3-(dimethyl-1H-1,2,3-triazol-5-yl)-5H-pyrido[3,2-b]indol-7-yl}propan-2-ol], the negative logarithm of the IC50 (pIC50) is over 8.30. Next, `COc1cc(F)c(C(C2CCOCC2)n2c3cc(C(C)(C)O)ccc3c3ncc(-c4c(C)nnn4C)cc32)cc1F` (single isomer, unassigned) [Example 124, 2-{5-[(2,5-Difluoro-4-methoxyphenyl)(oxan-4-yl)methyl]-3-(dimethyl-1H-1,2,3-triazol-5-yl)-5H-pyrido[3,2-b]indol-7-yl}propan-2-ol]: over 8.30; `Cc1noc(C)c1-c1cnc2c3ccc(C(C)(C)O)cc3n(C(c3ccc(F)cc3F)C3CCOCC3)c2c1` (single isomer, unassigned) [Example 125, 2-{5-[(2,4-Difluorophenyl)(oxan-4-yl)methyl]-3-(dimethyl-1,2-oxazol-4-yl)-5H-pyrido[3,2-b]indol-7-yl}propan-2-ol]: over 8.30. In the case of `Cc1noc(C)c1-c1cnc2c3ccc(C(C)(C)O)cc3n(C(c3ccc(F)cc3F)C3CCOCC3)c2c1` (single isomer, unassigned) [Example 126, 2-{5-[(2,4-Difluorophenyl)(oxan-4-yl)methyl]-3-(dimethyl-1,2-oxazol-4-yl)-5H-pyrido[3,2-b]indol-7-yl}propan-2-ol] it was over 7.60; in that of `Cc1noc(C)c1-c1cnc2c3ccc(C(C)(C)O)cc3n(C(c3c(F)cc(F)cc3F)C3CCOCC3)c2c1` (single isomer, unassigned) [Example 127, 2-[3-(Dimethyl-1,2-oxazol-4-yl)-5-[oxan-4-yl(2,4,6-trifluorophenyl)methyl]-5H-pyrido[3,2-b]indol-7-yl]propan-2-ol], over 8.30; in that of `Cc1noc(C)c1-c1cnc2c3ccc(C(C)(C)O)cc3n(C(c3c(F)cc(F)cc3F)C3CCOCC3)c2c1` (single isomer, unassigned) [Example 128, 2-[3-(Dimethyl-1,2-oxazol-4-yl)-5-[oxan-4-yl(2,4,6-trifluorophenyl)methyl]-5H-pyrido[3,2-b]indol-7-yl]propan-2-ol], over 7.60. Next, `Cc1noc(C)c1-c1cnc2c3ccc(C(C)(C)O)cc3n(C(c3cc(F)cc(F)c3)C3CCOCC3)c2c1` (single isomer, unassigned) [Example 129, 2-{5-[(3,5-Difluorophenyl)(oxan-4-yl)methyl]-3-(dimethyl-1,2-oxazol-4-yl)-5H-pyrido[3,2-b]indol-7-yl}propan-2-ol]: over 5.82; `Cc1noc(C)c1-c1cnc2c3ccc(C(C)(C)O)cc3n(C(c3cc(F)cc(F)c3)C3CCOCC3)c2c1` (single isomer, unassigned) [Example 130, 2-{5-[(3,5-Difluorophenyl)(oxan-4-yl)methyl]-3-(dimethyl-1,2-oxazol-4-yl)-5H-pyrido[3,2-b]indol-7-yl}propan-2-ol]: over 8.30; `Cc1nnn(C)c1-c1cnc2c3ccc(C(C)(C)O)cc3n(C(c3cc(F)ccc3F)C3CCOCC3)c2c1` (single isomer, unassigned) [Example 131, 2-{5-[(2,5-Difluorophenyl)(oxan-4-yl)methyl]-3-(dimethyl-1H-1,2,3-triazol-5-yl)-5H-pyrido[3,2-b]indol-7-yl}propan-2-ol]: over 8.30. As for `Cc1nnn(C)c1-c1cnc2c3ccc(C(C)(C)O)cc3n(C(c3cc(F)ccc3F)C3CCOCC3)c2c1` (single isomer, unassigned) [Example 132, 2-{5-[(2,5-Difluorophenyl)(oxan-4-yl)methyl]-3-(dimethyl-1H-1,2,3-triazol-5-yl)-5H-pyrido[3,2-b]indol-7-yl}propan-2-ol], the pIC50 is over 8.30.

As to `Cc1nnn(C)c1-c1cnc2c3ccc(C(C)(C)O)cc3n(C(c3c(F)cccc3F)C3CCOCC3)c2c1` (single isomer, unassigned) [Example 133, 2-{5-[(2,6-Difluorophenyl)(oxan-4-yl)methyl]-3-(dimethyl-1H-1,2,3-triazol-5-yl)-5H-pyrido[3,2-b]indol-7-yl}propan-2-ol], the pIC50 was over 8.30. In the case of `Cc1nnn(C)c1-c1cnc2c3ccc(C(C)(C)O)cc3n(C(c3c(F)cccc3F)C3CCOCC3)c2c1` (single isomer, unassigned) [Example 134, 2-{5-[(2,6-Difluorophenyl)(oxan-4-yl)methyl]-3-(dimethyl-1H-1,2,3-triazol-5-yl)-5H-pyrido[3,2-b]indol-7-yl}propan-2-ol] it was over 8.30. In the case of `Cc1nnn(C)c1-c1cnc2c3ccc(C(C)(C)O)cc3n(C(c3ccc(F)cc3F)C3CCOCC3)c2c1` (single isomer, unassigned) [Example 135, 2-{5-[(2,4-Difluorophenyl)(oxan-4-yl)methyl]-3-(dimethyl-1H-1,2,3-triazol-5-yl)-5H-pyrido[3,2-b]indol-7-yl}propan-2-ol] it was over 8.30; in that of `Cc1nnn(C)c1-c1cnc2c3ccc(C(C)(C)O)cc3n(C(c3ccc(F)cc3F)C3CCOCC3)c2c1` (single isomer, unassigned) [Example 136, 2-{5-[(2,4-Difluorophenyl)(oxan-4-yl)methyl]-3-(dimethyl-1H-1,2,3-triazol-5-yl)-5H-pyrido[3,2-b]indol-7-yl}propan-2-ol], over 8.30; in that of `COc1cc(C(C)(C)O)cc2c1c1ncc(-c3c(C)nnn3C)cc1n2C(c1ccccc1F)C1CCOCC1` (single isomer, unassigned) [Example 137, 2-[3-(Dimethyl-1H-1,2,3-triazol-5-yl)-5-[(2-fluorophenyl)(oxan-4-yl)methyl]-9-methoxy-5H-pyrido[3,2-b]indol-7-yl]propan-2-ol], over 8.30. Consider `COc1cc(C(C)(C)O)cc2c1c1ncc(-c3c(C)nnn3C)cc1n2C(c1ccccc1F)C1CCOCC1` (single isomer, unassigned) [Example 138, 2-[3-(Dimethyl-1H-1,2,3-triazol-5-yl)-5-[(2-fluorophenyl)(oxan-4-yl)methyl]-9-methoxy-5H-pyrido[3,2-b]indol-7-yl]propan-2-ol], for which the pIC50 is over 8.30.

With `Cc1noc(C)c1-c1cnc2c3ccc(C(C)(C)O)cc3n(C(c3cc(F)ccc3F)C3CCOCC3)c2c1` (single isomer, unassigned) [Example 139, 2-{5-[(2,5-Difluorophenyl)(oxan-4-yl)methyl]-3-(dimethyl-1,2-oxazol-4-yl)-5H-pyrido[3,2-b]indol-7-yl}propan-2-ol], the pIC50 is over 8.30. As for `Cc1noc(C)c1-c1cnc2c3ccc(C(C)(C)O)cc3n(C(c3cc(F)ccc3F)C3CCOCC3)c2c1` (single isomer, unassigned) [Example 140, 2-{5-[(2,5-Difluorophenyl)(oxan-4-yl)methyl]-3-(dimethyl-1,2-oxazol-4-yl)-5H-pyrido[3,2-b]indol-7-yl}propan-2-ol], the negative-log IC50 (pIC50) was over 8.30. In the case of `Cc1noc(C)c1-c1cnc2c3ccc(C(C)(C)O)cc3n(C(c3ccc(F)c(F)c3)C3CCOCC3)c2c1` (single isomer, unassigned) [Example 141, 2-{5-[(3,4-Difluorophenyl)(oxan-4-yl)methyl]-3-(dimethyl-1,2-oxazol-4-yl)-5H-pyrido[3,2-b]indol-7-yl}propan-2-ol] it was over 7.60; in that of `Cc1noc(C)c1-c1cnc2c3ccc(C(C)(C)O)cc3n(C(c3ccc(F)c(F)c3)C3CCOCC3)c2c1` (single isomer, unassigned) [Example 142, 2-{5-[(3,4-Difluorophenyl)(oxan-4-yl)methyl]-3-(dimethyl-1,2-oxazol-4-yl)-5H-pyrido[3,2-b]indol-7-yl}propan-2-ol], over 8.30; in that of `Cc1noc(C)c1-c1cnc2c3ccc(C(C)(C)O)cc3n(C(c3c(F)cccc3F)C3CCOCC3)c2c1` (single isomer, unassigned) [Example 143, 2-{5-[(2,6-Difluorophenyl)(oxan-4-yl)methyl]-3-(dimethyl-1,2-oxazol-4-yl)-5H-pyrido[3,2-b]indol-7-yl}propan-2-ol], over 8.30. Next, `Cc1noc(C)c1-c1cnc2c3ccc(C(C)(C)O)cc3n(C(c3c(F)cccc3F)C3CCOCC3)c2c1` (single isomer, unassigned) [Example 144, 2-{5-[(2,6-Difluorophenyl)(oxan-4-yl)methyl]-3-(dimethyl-1,2-oxazol-4-yl)-5H-pyrido[3,2-b]indol-7-yl}propan-2-ol]: over 8.30; `Cc1noc(C)c1-c1cnc2c3ccc(C(C)(C)O)cc3n(C(c3cccc(F)c3F)C3CCOCC3)c2c1` (single isomer, unassigned) [Example 145, 2-{5-[(2,3-Difluorophenyl)(oxan-4-yl)methyl]-3-(dimethyl-1,2-oxazol-4-yl)-5H-pyrido[3,2-b]indol-7-yl}propan-2-ol]: over 8.30; `Cc1noc(C)c1-c1cnc2c3ccc(C(C)(C)O)cc3n(C(c3cccc(F)c3F)C3CCOCC3)c2c1` (single isomer, unassigned) [Example 146, 2-{5-[(2,3-Difluorophenyl)(oxan-4-yl)methyl]-3-(dimethyl-1,2-oxazol-4-yl)-5H-pyrido[3,2-b]indol-7-yl}propan-2-ol]: over 8.30. Consider `Cc1noc(C)c1-c1cnc2c3ccc(C(C)(C)O)cc3n(C(c3cccc(F)c3)C3CCOCC3)c2c1` (single isomer, unassigned) [Example 147, 2-[3-(Dimethyl-1,2-oxazol-4-yl)-5-[(3-fluorophenyl)(oxan-4-yl)methyl]-5H-pyrido[3,2-b]indol-7-yl]propan-2-ol], for which the negative logarithm of the IC50 (pIC50) was over 8.30. For the molecule `Cc1noc(C)c1-c1cnc2c3ccc(C(C)(C)O)cc3n(C(c3cccc(F)c3)C3CCOCC3)c2c1` (single isomer, unassigned) [Example 148, 2-[3-(Dimethyl-1,2-oxazol-4-yl)-5-[(3-fluorophenyl)(oxan-4-yl)methyl]-5H-pyrido[3,2-b]indol-7-yl]propan-2-ol], the negative logarithm of the IC50 (pIC50) was over 7.60.
